Data published in PubChem BioAssay AID1918993 (Molecular Pharmacology Branch, DTP, NCI, 2023).
pIC50: −log10 of the molar value.

Test system: 233499-124-R-J3-PDC complex spheroid growth
Test: Anticancer human tumor 233499-124-R-J3-PDC patient-derived colon adenocarcinoma cell line growth inhibition [AhR]
Details: for pIC50: curve of first compound; for viability, T/C: stronger effect = lower value
Procedure, shortened: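 Complex tumor spheroids co-cultured with HUVEC and human MSC stroma; AhR antagonists tested in combination with standard-of-care and investigational agents. Top concentration at or near clinical Cmax (else 10 microM), half-log dilutions; growth expressed as percent test/control.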
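Also: spheroids exposed to agents for seven days before reading.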

For Nc1ccn(C2OC(CO)C(O)C2(F)F)c(=O)n1 (stereo not given) + Cc1ccccc1N=Nc1ccc(NC(=O)c2ccnn2C)c(C)c1, the pIC50 (second compound 0.1 µM) was less than 5.00, the pIC50 (second compound 0.316 µM) was 6.55 and the pIC50 (second compound 1 µM) was less than 5.00. For the same compound, the pIC50 (second compound 3.16 µM) was less than 5.00, the pIC50 (second compound 10 µM) was less than 5.00 and the viability, T/C (second compound 0.1 µM, first compound 0.0316 µM) was 103%. It also gave a viability, T/C (second compound 0.1 µM, first compound 0.1 µM) of 93.1%, a viability, T/C (second compound 0.1 µM, first compound 0.316 µM) of 69.5% and a viability, T/C (second compound 0.1 µM, first compound 1 µM) of 56.9%. The viability, T/C (second compound 0.1 µM, first compound 3.16 µM) was 65.7%, the viability, T/C (second compound 0.1 µM, first compound 10 µM) was 64.6% and the viability, T/C (second compound 0.316 µM, first compound 0.0316 µM) was 91.2%. For the same compound, the viability, T/C (second compound 0.316 µM, first compound 0.1 µM) was 101%, the viability, T/C (second compound 0.316 µM, first compound 0.316 µM) was 42.1% and the viability, T/C (second compound 0.316 µM, first compound 1 µM) was 39.1%. It also gave a viability, T/C (second compound 0.316 µM, first compound 3.16 µM) of 41%, a viability, T/C (second compound 0.316 µM, first compound 10 µM) of 57% and a viability, T/C (second compound 1 µM, first compound 0.0316 µM) of 95.5%. The viability, T/C (second compound 1 µM, first compound 0.1 µM) was 93.7%, the viability, T/C (second compound 1 µM, first compound 0.316 µM) was 62.8% and the viability, T/C (second compound 1 µM, first compound 1 µM) was 47.4%. For the same compound, the viability, T/C (second compound 1 µM, first compound 3.16 µM) was 59.6%, the viability, T/C (second compound 1 µM, first compound 10 µM) was 53.6% and the viability, T/C (second compound 3.16 µM, first compound 0.0316 µM) was 84.5%. It also gave a viability, T/C (second compound 3.16 µM, first compound 0.1 µM) of 81.3%, a viability, T/C (second compound 3.16 µM, first compound 0.316 µM) of 65.9% and a viability, T/C (second compound 3.16 µM, first compound 1 µM) of 55.8%. The viability, T/C (second compound 3.16 µM, first compound 3.16 µM) was 65.8%, the viability, T/C (second compound 3.16 µM, first compound 10 µM) was 68.7% and the viability, T/C (second compound 10 µM, first compound 0.0316 µM) was 94%. For the same compound, the viability, T/C (second compound 10 µM, first compound 0.1 µM) was 111%, the viability, T/C (second compound 10 µM, first compound 0.316 µM) was 93.5% and the viability, T/C (second compound 10 µM, first compound 1 µM) was 87.8%. For the same compound, the viability, T/C (second compound 10 µM, first compound 3.16 µM) was 71.2% and the viability, T/C (second compound 10 µM, first compound 10 µM) was 76.5%.

With O=C(C=Cn1cnc(-c2cc(C(F)(F)F)cc(C(F)(F)F)c2)n1)NNc1cnccn1 + CC(CO)NC(=O)c1cc(-c2ccc(Cl)cc2)nn(-c2cnn(C)c2)c1=O the pIC50 (second compound 0.1 µM) was less than 5.52, the pIC50 (second compound 0.316 µM) was less than 5.52 and the pIC50 (second compound 1 µM) was less than 5.52. For the same compound, the pIC50 (second compound 3.16 µM) was less than 5.52, the pIC50 (second compound 10 µM) was 5.59 and the viability, T/C (second compound 0.1 µM, first compound 0.00949 µM) was 92.4%. The viability, T/C (second compound 0.1 µM, first compound 0.03 µM) was 102%, the viability, T/C (second compound 0.1 µM, first compound 0.0949 µM) was 92.2% and the viability, T/C (second compound 0.1 µM, first compound 0.3 µM) was 95.1%. The viability, T/C (second compound 0.1 µM, first compound 0.949 µM) was 82.3%, the viability, T/C (second compound 0.1 µM, first compound 3 µM) was 59.6% and the viability, T/C (second compound 0.316 µM, first compound 0.00949 µM) was 93.8%. It also gave a viability, T/C (second compound 0.316 µM, first compound 0.03 µM) of 89.6%, a viability, T/C (second compound 0.316 µM, first compound 0.0949 µM) of 101% and a viability, T/C (second compound 0.316 µM, first compound 0.3 µM) of 99.7%. The viability, T/C (second compound 0.316 µM, first compound 0.949 µM) was 58.9%, the viability, T/C (second compound 0.316 µM, first compound 3 µM) was 68.4% and the viability, T/C (second compound 1 µM, first compound 0.00949 µM) was 79.7%. The viability, T/C (second compound 1 µM, first compound 0.03 µM) was 101%, the viability, T/C (second compound 1 µM, first compound 0.0949 µM) was 93.9% and the viability, T/C (second compound 1 µM, first compound 0.3 µM) was 76.5%. The viability, T/C (second compound 1 µM, first compound 0.949 µM) was 59.1%, the viability, T/C (second compound 1 µM, first compound 3 µM) was 56.1% and the viability, T/C (second compound 3.16 µM, first compound 0.00949 µM) was 91.3%. For the same compound, the viability, T/C (second compound 3.16 µM, first compound 0.03 µM) was 97%, the viability, T/C (second compound 3.16 µM, first compound 0.0949 µM) was 84.9% and the viability, T/C (second compound 3.16 µM, first compound 0.3 µM) was 99%. For the same compound, the viability, T/C (second compound 3.16 µM, first compound 0.949 µM) was 62.7%, the viability, T/C (second compound 3.16 µM, first compound 3 µM) was 56.6% and the viability, T/C (second compound 10 µM, first compound 0.00949 µM) was 93.1%. It also gave a viability, T/C (second compound 10 µM, first compound 0.03 µM) of 87.2%, a viability, T/C (second compound 10 µM, first compound 0.0949 µM) of 71.8% and a viability, T/C (second compound 10 µM, first compound 0.3 µM) of 106%. For the same compound, the viability, T/C (second compound 10 µM, first compound 0.949 µM) was 82% and the viability, T/C (second compound 10 µM, first compound 3 µM) was 44.5%.
